# Species on record: Rattus norvegicus
# Assay: DrugMatrix - Regimen: Daily Repeat
# Format: toxicity, organism-based, Sprague-Dawley
# Parameters: regimen Daily Repeat, gender Male, age 6-8 weeks
# Conditions: in vivo, po, route oral GAVAGE, vehicle .5 % CMC; for ABSOLUTE BASOPHIL / ABSOLUTE EOSINOPHIL / ABSOLUTE LYMPHOCYTE / ABSOLUTE MONOCYTE / ABSOLUTE SEGMENTED NEUTROPHIL / BASOPHIL / EOSINOPHIL / ERYTHROCYTE COUNT / HEMATOCRIT / HEMOGLOBIN / LEUKOCYTE COUNT / LYMPHOCYTE / MEAN CORPUSCULAR HEMOGLOBIN / MEAN CORPUSCULAR HEMOGLOBIN CONCENTRATION / MEAN CORPUSCULAR VOLUME / MONOCYTE / NEUTROPHIL / NUCLEATED RED BLOOD CELLS / PLATELET COUNT: tissue Blood; for ALANINE AMINOTRANSFERASE / ALBUMIN / ASPARTATE AMINOTRANSFERASE / BLOOD UREA NITROGEN / CARBON DIOXIDE / CHLORIDE / CREATINE PHOSPHOKINASE / CREATININE / GLUCOSE / LACTATE DEHYDROGENASE / LIPASE / PHOSPHORUS / POTASSIUM / SODIUM / TOTAL BILIRUBIN / TOTAL PROTEIN: tissue Plasma
# [1] = 16 mg/kg, 72 h, dose level Low, time 3 day
# [2] = 16 mg/kg, 120 h, dose level Low, time 5 day
# [3] = 2500 mg/kg, 72 h, dose level High, time 3 day
# [4] = 2500 mg/kg, 120 h, dose level High, time 5 day
smiles,measurement,setting,value
CC1=C(C(=O)O)N2C(=O)[C@@H](NC(=O)[C@H](N)c3ccccc3)[C@H]2SC1 [CEPHALEXIN ANHYDROUS],ABSOLUTE BASOPHIL,[1],0 CELLS/uL
same,ABSOLUTE EOSINOPHIL,[1],0 CELLS/uL
same,ABSOLUTE LYMPHOCYTE,[1],17436 CELLS/uL
same,ABSOLUTE MONOCYTE,[1],124 CELLS/uL
same,ABSOLUTE SEGMENTED NEUTROPHIL,[1],706.67 CELLS/uL
same,BASOPHIL,[1],0%
same,EOSINOPHIL,[1],0%
same,ERYTHROCYTE COUNT,[1],5.81 x10E6/uL
same,HEMATOCRIT,[1],35.97%
same,HEMOGLOBIN,[1],13.93 G/DL
same,LEUKOCYTE COUNT,[1],18.27 x10E3/uL
same,LYMPHOCYTE,[1],95.33%
same,MEAN CORPUSCULAR HEMOGLOBIN,[1],24.03 pg
same,MEAN CORPUSCULAR HEMOGLOBIN CONCENTRATION,[1],38.8 G/DL
same,MEAN CORPUSCULAR VOLUME,[1],61.97 fL
same,MONOCYTE,[1],0.67%
same,NEUTROPHIL,[1],4%
same,NUCLEATED RED BLOOD CELLS,[1],0 /100WBC
same,PLATELET COUNT,[1],1279 x10E3/uL
same,ALANINE AMINOTRANSFERASE,[1],50.33 u/L
same,ALBUMIN,[1],4.13 G/DL
same,ASPARTATE AMINOTRANSFERASE,[1],86.67 u/L
same,BLOOD UREA NITROGEN,[1],14.33 mg/dL
same,CARBON DIOXIDE,[1],30 mmol/L
same,CHLORIDE,[1],101 MEQ/L
same,CREATINE PHOSPHOKINASE,[1],208 u/L
same,CREATININE,[1],0.23 mg/dL
same,GLUCOSE,[1],163.33 mg/dL
same,LACTATE DEHYDROGENASE,[1],208.33 u/L
same,LIPASE,[1],9 u/L
same,PHOSPHORUS,[1],13.27 mg/dL
same,POTASSIUM,[1],7.33 MEQ/L
same,SODIUM,[1],146.17 MEQ/L
same,TOTAL BILIRUBIN,[1],0.17 mg/dL
same,TOTAL PROTEIN,[1],5.9 G/DL
same,ABSOLUTE BASOPHIL,[2],0 CELLS/uL
same,ABSOLUTE EOSINOPHIL,[2],0 CELLS/uL
same,ABSOLUTE LYMPHOCYTE,[2],13406.33 CELLS/uL
same,ABSOLUTE MONOCYTE,[2],44 CELLS/uL
same,ABSOLUTE SEGMENTED NEUTROPHIL,[2],716.33 CELLS/uL
same,BASOPHIL,[2],0%
same,EOSINOPHIL,[2],0%
same,ERYTHROCYTE COUNT,[2],5.62 x10E6/uL
same,HEMATOCRIT,[2],33.87%
same,HEMOGLOBIN,[2],13.33 G/DL
same,LEUKOCYTE COUNT,[2],14.17 x10E3/uL
same,LYMPHOCYTE,[2],94.67%
same,MEAN CORPUSCULAR HEMOGLOBIN,[2],23.63 pg
same,MEAN CORPUSCULAR HEMOGLOBIN CONCENTRATION,[2],39.33 G/DL
same,MEAN CORPUSCULAR VOLUME,[2],60.17 fL
same,MONOCYTE,[2],0.33%
same,NEUTROPHIL,[2],5%
same,NUCLEATED RED BLOOD CELLS,[2],0 /100WBC
same,PLATELET COUNT,[2],900 x10E3/uL
same,ALANINE AMINOTRANSFERASE,[2],49 u/L
same,ALBUMIN,[2],4.2 G/DL
same,ASPARTATE AMINOTRANSFERASE,[2],98 u/L
same,BLOOD UREA NITROGEN,[2],14.67 mg/dL
same,CARBON DIOXIDE,[2],24 mmol/L
same,CHLORIDE,[2],103.33 MEQ/L
same,CREATINE PHOSPHOKINASE,[2],652.67 u/L
same,CREATININE,[2],0.25 mg/dL
same,GLUCOSE,[2],200.67 mg/dL
same,LACTATE DEHYDROGENASE,[2],425.67 u/L
same,LIPASE,[2],9 u/L
same,PHOSPHORUS,[2],13.2 mg/dL
same,POTASSIUM,[2],6.1 MEQ/L
same,SODIUM,[2],146.5 MEQ/L
same,TOTAL BILIRUBIN,[2],0.17 mg/dL
same,TOTAL PROTEIN,[2],6.13 G/DL
same,ABSOLUTE BASOPHIL,[3],0 CELLS/uL
same,ABSOLUTE EOSINOPHIL,[3],47.67 CELLS/uL
same,ABSOLUTE LYMPHOCYTE,[3],14295 CELLS/uL
same,ABSOLUTE MONOCYTE,[3],55 CELLS/uL
same,ABSOLUTE SEGMENTED NEUTROPHIL,[3],435.67 CELLS/uL
same,BASOPHIL,[3],0%
same,EOSINOPHIL,[3],0.33%
same,ERYTHROCYTE COUNT,[3],5.55 x10E6/uL
same,HEMATOCRIT,[3],35.7%
same,HEMOGLOBIN,[3],14 G/DL
same,LEUKOCYTE COUNT,[3],14.83 x10E3/uL
same,LYMPHOCYTE,[3],96.33%
same,MEAN CORPUSCULAR HEMOGLOBIN,[3],25.23 pg
same,MEAN CORPUSCULAR HEMOGLOBIN CONCENTRATION,[3],39.2 G/DL
same,MEAN CORPUSCULAR VOLUME,[3],64.3 fL
same,MONOCYTE,[3],0.33%
same,NEUTROPHIL,[3],3%
same,NUCLEATED RED BLOOD CELLS,[3],0 /100WBC
same,PLATELET COUNT,[3],1231 x10E3/uL
same,ALANINE AMINOTRANSFERASE,[3],67.33 u/L
same,ALBUMIN,[3],3.93 G/DL
same,ASPARTATE AMINOTRANSFERASE,[3],82.67 u/L
same,BLOOD UREA NITROGEN,[3],16 mg/dL
same,CARBON DIOXIDE,[3],31.67 mmol/L
same,CHLORIDE,[3],100.33 MEQ/L
same,CREATINE PHOSPHOKINASE,[3],209 u/L
same,CREATININE,[3],0.17 mg/dL
same,GLUCOSE,[3],140 mg/dL
same,LACTATE DEHYDROGENASE,[3],154.67 u/L
same,LIPASE,[3],9 u/L
same,PHOSPHORUS,[3],10.93 mg/dL
same,POTASSIUM,[3],6.36 MEQ/L
same,SODIUM,[3],145.43 MEQ/L
same,TOTAL BILIRUBIN,[3],0.2 mg/dL
same,TOTAL PROTEIN,[3],5.67 G/DL
same,ABSOLUTE BASOPHIL,[4],0 CELLS/uL
same,ABSOLUTE EOSINOPHIL,[4],48.67 CELLS/uL
same,ABSOLUTE LYMPHOCYTE,[4],11635.33 CELLS/uL
same,ABSOLUTE MONOCYTE,[4],0 CELLS/uL
same,ABSOLUTE SEGMENTED NEUTROPHIL,[4],2649.33 CELLS/uL
same,BASOPHIL,[4],0%
same,EOSINOPHIL,[4],0.33%
same,ERYTHROCYTE COUNT,[4],5.85 x10E6/uL
same,HEMATOCRIT,[4],35.6%
same,HEMOGLOBIN,[4],13.87 G/DL
same,LEUKOCYTE COUNT,[4],14.33 x10E3/uL
same,LYMPHOCYTE,[4],81.67%
same,MEAN CORPUSCULAR HEMOGLOBIN,[4],23.8 pg
same,MEAN CORPUSCULAR HEMOGLOBIN CONCENTRATION,[4],38.93 G/DL
same,MEAN CORPUSCULAR VOLUME,[4],61.07 fL
same,MONOCYTE,[4],0%
same,NEUTROPHIL,[4],18%
same,NUCLEATED RED BLOOD CELLS,[4],0 /100WBC
same,PLATELET COUNT,[4],1275.33 x10E3/uL
same,ALANINE AMINOTRANSFERASE,[4],101.33 u/L
same,ALBUMIN,[4],4.23 G/DL
same,ASPARTATE AMINOTRANSFERASE,[4],94.67 u/L
same,BLOOD UREA NITROGEN,[4],18.33 mg/dL
same,CARBON DIOXIDE,[4],28 mmol/L
same,CHLORIDE,[4],105.33 MEQ/L
same,CREATINE PHOSPHOKINASE,[4],302 u/L
same,CREATININE,[4],0.24 mg/dL
same,GLUCOSE,[4],174.67 mg/dL
same,LACTATE DEHYDROGENASE,[4],98.67 u/L
same,LIPASE,[4],9.67 u/L
same,PHOSPHORUS,[4],11.77 mg/dL
same,POTASSIUM,[4],5.92 MEQ/L
same,SODIUM,[4],150.03 MEQ/L
same,TOTAL BILIRUBIN,[4],0.17 mg/dL
same,TOTAL PROTEIN,[4],5.97 G/DL

# Reference: ChEMBL document CHEMBL3885881, “DrugMatrix”
